Laboratory results reported in patent publication US9115061B2, “Naphthalene-based inhibitors of anti-apoptotic proteins” (BURNHAM INSTITUTE FOR MEDICAL RESEARCH, priority 2007, dated 2015).

Assays:
GST-BCL-XL ΔTM protein = GST-BCL-XL ΔTM protein (Homo sapiens (Human), UniProt Q07817); assay: Competitive fluorescence polarization assay (FITC-Bak BH3 peptide); type: binding; settings: read-out: FPA IC50 (BCL-XL)
Experimental: For competitive binding assays, 100 nM GST-BCL-XL ΔTM protein was preincubated with the tested compound at varying concentrations in 47.5 μL PBS (pH=7.4) in 96-well black plates at room temperature for 10 min, then 2.5 μL of 100 nM FITC-labeled Bak BH3 peptide was added to produce a final volume of 50 μL. The wild-type and mutant Bak BH3 peptides were included in each assay plate as positive and negative controls, respectively.
IC50 was determined by fitting the experimental data to a sigmoidal dose-response nonlinear regression model (SigmaPlot 10.0.1, Systat Software, Inc., San Jose, Calif., USA). Data reported are mean of three independent experiments ±standard error (SE). […] Fluorescence polarization was measured after 10 min.

Balb/c mice = assay: Oral toxicity study in normal Balb/c mice; type: in vivo, mouse; settings: […] oral, three weeks
Experimental: Compounds or vehicle control were dosed 15 times over 3 weeks, giving compounds daily for 5 consecutive days (Monday-Friday), resting on weekends.
Both compounds were provided by NCI-DTP (RAID-program). Compounds were dissolved in 100% sesame oil just before oral administration. Vehicle-control consisted of corresponding concentration of ascorbic acid suspended in 100% sesame oil.
(§1) Spleens were removed and weighed.
Whole blood (250 μl) was collected in EDTA-coated glass tubes (purple top; MICROTAINER Brand Tube with EDTA, Catalogue #365973, Becton, Dickinson and Company, New Jersey 07417-1885) via either cardiac puncture or severing the brachial artery of anesthetized mice. After thorough mixing, specimens were analyzed using a VetScan HM2 (Abaxis Inc., Union City, Calif. 94587) hematology analyzer, measuring white blood cell count (WBC), red blood cell count (RBC), platelet (PLT) count, leukocyte differential (including % lymphocyte, % monocyte and % granulocyte), hematocrit (Ht), and hemoglobin (Hb).
(Eppendorf Centrifuge 5415C) for 2 minutes to separate serum from cells and fibrin clot. The resulting serum specimens were analyzed using an automated blood chemistry analyzer (“COBAS MIRA Classic”; Roche, Indianapolis, Ind. 46250-0414) to measure alanine aminotransferase (ALT) and aspartate aminotransferase AST), blood urea nitrogen (BUN), and […].
Stomach and intestines were examined also imaged by ultrasound for evidence of dilation, an indication of GI toxicity. Briefly, mice were anesthetized using a mixture of isofluorane (5%) and oxygen gas (95%), restrained on a heated table using Aquagel Lubrication Gel (Parker Laboratories, Inc., Fairfield, N.J. 07004), and abdominal hair was removed with a chemical depilation agent (Nair™ Hair Removal, Church & Dwight Co., Inc., Princeton, N.J. 08543). Aquasonic 100 Ultrasound Transmission Gel (Parker Laboratories, Inc., Fairfield, N.J. 07004) was applied to the abdomen prior to imaging using a high-frequency probe to assess gas and intestinal distention.
Immediately after ultrasound imaging, electrocardiogram (ECG) analysis of anesthetized mice was performed using a MP150 Biopack System.

BCL-2 transgenic mice = assay: Oral efficacy study in BCL-2 transgenic mice (splenomegaly); type: in vivo, mouse; settings: QDX5 for 3 weeks
Experimental: The transgene was propagated on the Balb/c background.
as §1
Spleens were excised from sacrificed mice and cell suspensions treated with a mouse erythrocyte lysing kit (R & D Systems). Total splenocyte count was determined by typan blue dye exclusion assays using hemocytometers. The percentage of B-lymphocytes was determined by fluorescence activated cell sorter (FACS) analysis SACS-CANTO, Bectin-Dickinson Inc., Mountain View, Calif.) following staining cells with Phyco-Erytrin (PE)-conjugated anti-CD19 or -B220 antibodies (Becton Dickinson, San Jose, Calif. 95131).
Representative data are shown by FIGS. 11A and 11B.

[1] = orally 0.06 mmol/kg daily for up to 21 days; cited from earlier work

Chain of GST-BCL-XL ΔTM protein (Q07817 1-209): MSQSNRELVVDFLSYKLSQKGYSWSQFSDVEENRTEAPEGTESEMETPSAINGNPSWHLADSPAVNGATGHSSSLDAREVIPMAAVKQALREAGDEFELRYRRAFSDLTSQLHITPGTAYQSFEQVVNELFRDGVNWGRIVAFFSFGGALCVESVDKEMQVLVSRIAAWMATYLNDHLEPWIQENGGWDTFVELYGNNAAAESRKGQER

SMILES: Cc1cc2c(C(C)C)c(O)c(O)c(C=O)c2c(O)c1-c1c(C)cc2c(C(C)C)c(O)c(O)c(C=O)c2c1O [Gossypol, gossypol]
- IC50 (GST-BCL-XL ΔTM protein): 2720 nM
- general condition of mice (Balb/c mice): lethagic with scruffy hair
- tolerability, low dose (BCL-2 transgenic mice; 0.06 mmol/kg oral): well tolerated
- shrinkage of spleen, low dose (BCL-2 transgenic mice; 0.06 mmol/kg oral, wet weight and B-cell count): induced shrinkage of spleen to a considerable extent but not significantly
- tolerability, high dose (BCL-2 transgenic mice; […] oral): not tolerated
- anti-tumor activity [1]: show anti-tumor activity
- lethality [1]: non-lethal
